From patent publication US20230129651A1, “HAIRPIN STRUCTURE NUCLEIC ACID MOLECULES CAPABLE OF MODULATING TARGET GENE EXPRESSION AND USES THEREOF” (KOREA ADVANCED INSTITUTE OF SCIENCE AND TECHNOLOGY, priority 2021, published 2023)
“Also recorded” adds a separate entry of the source.

B1: bcl-xL(1)_222_222: linear miRNA trigger binding miR-222 and knocking down bcl-xL; SEQ ID NO 106 (nucleic acid)
chain: ACCCAGUAGCCAGAUGUAGCUACCCAGUAGCCAGAUGUAGCUUCUCCUUCCUGCCCUUCCU
modifications: all 2'-O-methyl, backbone not given here
B2: DB_PKRS20_141: dumbbell-shaped miRNA trigger, 20-nt mRNA-binding portion, binds miRNA-141 and PKR mRNA; SEQ ID NO 130 (nucleic acid)
chain: CCCCCCGAATGAGAAATACCATCTTTACCAGACAGTGTTATATTTCTCATTCCCTTCCTTNNAAGGAAGGGGGGGG
modifications: listed as DNA, chemistry not given here

Key:
Hela-200c cells = experiment: Cell viability / apoptosis of Hela-200c cells after transfection; assay type: cell-based
Description: (§1) The miRNA triggers were assayed for cytotoxicity and apoptosis induction, using the CCK-8 (Cell Counting Kit-8) (Dojindo, Kumamoto, Japan) according to the manufacturer's instruction. Cells were incubated in 96-well plates (5×10^3 cells/well) at 37° C. for 24 hours under a 5% CO2 atmosphere, followed by transfection. Three days after transfection, the medium was removed. A 10-fold dilution of CCK-8 solution in DMEM was added to the cells which were then incubated at 37° C. for 2 hours. After incubation, absorbance was read at 450 nm on Tecan Infinite M200 pro microplate reader (Mnnedorf, Switzerland).
(§2) The linear miRNA triggers or siRNAs (siLuc and siMcl-1) prepared above were transfected into Hela, Hela-141, and Hela-200c cells which were then measured for cell viability. The results are depicted in FIG. 15.

Hela-141 cells = experiment: Cell viability / apoptosis of Hela-141 cells after transfection; assay type: cell-based
Description: as §1, §2
(§3) The hairpin miRNA triggers prepared above were transfected into Hela and Hela-141 cells which were then assayed for apoptosis. As a control, the siRNA (siMcl-1; Table 14) which can repress the expression of mcl-1 was transfected to Hela and Hela-141 cells and measured for apoptotic activity.

Mcl-1 protein = experiment: Western blotting of Mcl-1 protein in Hela-141 cells; assay type: cell-based; conditions: 5 to 120 nM
Description: (§4) miRNA triggers were transfected into cells in the same manner as in Reference Example 4. After 72 hours, the cells were collected using a cell scraper and lysed with a RIPA buffer (NaCl 150 mM, EDTA 5 mM, Tris 50 mM, NP-40 1.0%, sodium deoxycholate 0.5%, SDS 0.1%). The cell lysate was sonicated 15 times, each for 20 sec, with a halt for 30 sec every sonication. Following centrifugation at 5,000 g for 5 min, the supernatant was taken and used to extract proteins therefrom. A total of 30-40 μg of protein sample was separated in 10-15% SDS-PAGE gel and transferred onto a PVDF membrane through a semi-dry blotting system. The membrane was blocked for 1 hour in 5% skimmed milk and incubated for 2 hours with a 1,000-fold dilution of a primary antibody in, 1% skimmed milk. […] The membrane incubated with the secondary antibody was washed three times with 1×PBST for 10 min each wash, and then reacted with Clarity Western ECL Substrate (#1705061, Bio-Rad), after which images were obtained and analyzed using ChemiDoc (Bio-rad, Hercules, USA).
A linear miRNA trigger (Mcl-1-141-141; Table 15) that could bind to miR-141 and target mcl-1 was prepared while a linear miRNA trigger (Luc-141-141; Table 9) that could bind to miR-141 and target Luc (luciferase) was used as a control. […] Then, proteins were extracted from the Hela-141 cells and quantitatively analyzed for Mcl-1 protein level by western blotting. […]

Bcl-xL = experiment: bcl-xL protein expression in MDA-MB-453 cells; assay type: cell-based
Description: as §4
(§5) The selected linear miRNA triggers (bcl-xL(1)_222_222 and bcl-xL(2)_222_222) were transfected into the breast cancer cell line MDA-MB-453 to which miR-222 is not endogenous. Cell viability, and the mRNA and protein expression levels of the target gene (bcl-xL) were measured and the results are depicted in FIGS. 33a to 33c.

bcl-xL mRNA = bcl-xL mRNA expression in MDA-MB-453 cells; assay type: cell-based
Description: In the same manner as in Reference Example 4, miRNA triggers were transfected into cells. After 48 hours, total RNA was extracted using TRIzol (Thermo Fisher Scientific) according to the manufacturer's instruction. The purified RNA was treated with DNase I and then reverse transcribed in the presence of RevertAid reverse transcriptase (Thermo Fisher Scientific), with random hexamers (Thermo Fisher Scientific) serving as primers. For use in amplification of target genes, primers for target genes were added, together with the cDNA, to the SYBR Green PCR master mix (Thermo Fisher Scientific). RT-qPCR was conducted on a StepOnePlus real-time PCR system. Cq values obtained from this analysis was quantitatively analyzed based on the 2^−ΔΔC(t) method.
as §5

[1] = test system: breast cancer cell line MDA-MB-453; experiment: Cell viability of MDA-MB-453 after transfection; assay type: cell-based; conditions: miR-222 not endogenous
Description: as §1, §5

[2] = test system: breast cancer cell line MDA-MB-231; experiment: Cell viability of MDA-MB-231 after transfection; assay type: cell-based; conditions: Example 8-1
Description: as §1
The seven linear miRNA triggers prepared above and the positive control siRNA(siBcl-xL) capable of binding to bcL-xL were transfected into the breast cancer cell line MDA-MB-231 in which miR-222 is overexpressed. Cell viability was measured and is depicted in FIG. 32a.
Linear miRNA triggers that could bind to miR-222 and target bcl-xL and mcl-1, respectively, were prepared and transfected alone or in combination into the breast cancer cell line MDA-MB-231. Cell viability was measured and the measurements are depicted in FIG. 34. siRNAs against Mcl-1 and Bcl-xL were used as controls. Sequences are listed in Table 23 for the linear miRNA trigger prepared above, in Tables 22 and 9 for the controls Luc-Luc-Luc and luc-222-222, respectively, and in Table 13 for the siRNAs. Every nucleotide of the triggers and the controls was chemically modified with 2′-OMe.
Linear miRNA triggers that could bind to miR-141 or let7f and target Bcl-xL or Mcl-1 were prepared and transfected alone or in combination into the breast cancer cell line MDA-MB-231 which was then measured for cell viability. […]
The hairpin miRNA triggers prepared above were transfected into MDA-MB-231 and MDA-MB-453 cells which were then measured for cell viability. […]
Hairpin miRNA triggers which could bind to miR-222 or let-7f and target mcl-1 or bcl-xL were prepared and transfected into the breast cancer cell line MDA-MB-231 which was then measured for cell viability. […]

[3] = test system: MCF-7 breast cancer cells; experiment: Cell viability of MCF-7 after transfection; assay type: cell-based; conditions: siRNA 60 nM
Description: as §1
An siRNA targeting bcl-2, bcl-xL, or mcl-1 was transfected into MCF-7 breast cancer cells and PANC-1 pancreatic cancer cells. By using qRT-PCR, establishment was made of a condition under which the expression of each target gene is decreased by 80% or more (transfection was performed at a concentration of 60 nM with the aid of Lipofectamine). […] Under the same condition of decreasing the expression of each target gene by 80% or more, the cells transfected with the siRNAs were measured for apoptosis, and the results are depicted in FIGS. 14a and 14b.
Linear miRNA triggers that could bind to miR-141 or let7f and target bcl-xL or mcl-1 were prepared and transfected alone or in combination into the breast cancer cell line MCF-7 which was then measured for cell viability. […]

Hela cells = experiment: Cell viability / apoptosis of Hela cells after transfection; assay type: cell-based
Description: as §1, §2, §3

[4] = test system: miRNA-141 and PKR mRNA (2); experiment: PAGE assay of dumbbell miRNA trigger binding to miRNA and target mRNA; conditions: 100 nM each, 37° C., 1 hour
Description: To a buffer (1×PBS buffer, +5 mM MgCl2, 137 mM NaCl, 10 mM PO4, 2.7 mM KCl, 5 mM MgCl2; pH 7.4) containing 100 nM of the dumbbell miRNA trigger (DP) prepared above, 100 nM miRNA and/or 100 nM target mRNA was added, followed by incubation at 37° C. for 1 hour. Each sample was loaded to a PAGE gel and run. The results are depicted in FIG. 39b.

| Molecule | apoptosis / cell viability (in words) (Hela-200c cells) | protein expression level of target bcl-xL (Bcl-xL) | mRNA expression level of target bcl-xL (bcl-xL mRNA) | cell viability [1] | killing of breast cancer cells (cell viability) [2] | also measured |
| --- | --- | --- | --- | --- | --- | --- |
| Mcl-1_141_141: linear miRNA trigger binding miR-141 and targeting Mcl-1 gene; SEQ ID NO 65 (110 in Table 24) (CCAUCUUUACCUCACAGUGUUACCAUCUUUACCUCACAGUGUUACCGAACUACGUAGC; all 2'-O-methyl, backbone not given here) | no significant influence on cell viability |  |  |  |  | apoptosis induced (Hela-141 cells): about 40%; Mcl-1 protein level compared to control Luc-141-141 (Mcl-1 protein): significantly decreased in Mcl-1 protein level |
| bcl-xL(2)_222_222: linear miRNA trigger binding miR-222 and knocking down bcl-xL; SEQ ID NO 107 (ACCCAGUAGCCAGAUGUAGCUACCCAGUAGCCAGAUGUAGCUUACCUGCCAGCCUCCUU; all 2'-O-methyl, backbone not given here) |  | did not significantly change | did not significantly change | did not significantly change | effectively kill breast cancer cells |  |
| siMcl-1: siRNA targeting mcl-1; SEQ ID NO 64 (AAAUUCGAUACUUCCUUCG; listed as RNA, chemistry not given here) [reference compound] | induced apoptosis |  |  |  |  | apoptosis / cell viability (in words) (Hela-141 cells): induced apoptosis; also recorded: brought about an apoptotic effect; cell viability / apoptosis after siRNA (in words) [3]: decreased in cell viability; apoptosis / cell viability (in words) (Hela cells): induced apoptosis; also recorded: brought about an apoptotic effect |
| B1 |  | did not significantly change | did not significantly change | did not significantly change | effectively kill breast cancer cells |  |
| B2 |  |  |  |  |  | binding to target mRNA in the absence of the miRNA ([4]; lane 3): did not bind to a target mRNA; binding to miRNA and/or target mRNA in the presence of the miRNA ([4]; lanes 2 and 4): could bind to a miRNA and/or target mRNA only in the presence of the miRNA |
